Test results from the CheMixHub viscosity set.
Where “and” joins values, the source holds several entries; their conditions need not be identical. Equal entries are not always repeated. ± gives the uncertainty stated by the source.

Assay: xn = mol fraction of the nth substance listed

CCCCC(=O)O + CCCCCCCO
viscosity [mPa·s], 100 kPa
Details	x1 = 0.0814	x1 = 0.1667	x1 = 0.2436	x1 = 0.3521	x1 = 0.4395	x1 = 0.5617	x1 = 0.6566	x1 = 0.7424	x1 = 0.8518	x1 = 0.9437
293.15 K	6.67 ± 0.09	6.29 ± 0.09	5.94 ± 0.09	5.44 ± 0.09	5.02 ± 0.08	4.43 ± 0.08	3.96 ± 0.08	3.54 ± 0.08	2.99 ± 0.08	2.53 ± 0.08
303.15 K	4.79 ± 0.08	4.54 ± 0.08	4.31 ± 0.08	3.98 ± 0.08	3.7 ± 0.08	3.31 ± 0.08	3 ± 0.08	2.72 ± 0.08	2.36 ± 0.08	2.06 ± 0.08
313.15 K	3.52 ± 0.08	3.32 ± 0.08	3.14 ± 0.08	2.9 ± 0.08	2.72 ± 0.08	2.46 ± 0.08	2.27 ± 0.08	2.09 ± 0.08	1.87 ± 0.08	1.68 ± 0.08
323.15 K	2.66 ± 0.08	2.53 ± 0.08	2.42 ± 0.08	2.26 ± 0.08	2.13 ± 0.08	1.96 ± 0.08	1.83 ± 0.08	1.71 ± 0.08	1.56 ± 0.08	1.43 ± 0.08

NC(N)=S + O
viscosity [mPa·s], 100 kPa
Details	293.15 K	298.15 K	303.15 K	308.15 K	313.15 K
x1 = 0.00045	1.01 ± 0.021	0.907 ± 0.019	0.817 ± 0.017	0.735 ± 0.016	0.668 ± 0.014
x1 = 0.0009	1.019 ± 0.022	0.916 ± 0.02	0.823 ± 0.018	0.747 ± 0.016	0.677 ± 0.014
x1 = 0.0013	1.029 ± 0.022	0.935 ± 0.02	0.847 ± 0.018	0.763 ± 0.016	0.702 ± 0.015

CCCC(N)=O + O
298.15 K, 101 kPa
Details	viscosity [mPa·s]
x1 = 0.00213	0.906 ± 0.18
x1 = 0.0179	1.122 ± 0.23
x1 = 0.0403	1.458 ± 0.29
x1 = 0.04319	1.511 ± 0.3

OC[C@H]1O[C@@](CO)(O[C@H]2O[C@H](CO)[C@@H](O)[C@H](O)[C@H]2O)[C@@H](O)[C@@H]1O + O
Details	viscosity
293.15 K, 101 kPa, x1 = 0.00581	1.26 ± 0.15 mPa·s and 1.27 ± 0.16 mPa·s
293.15 K, 101 kPa, x1 = 0.013	1.96 ± 0.24 mPa·s
293.15 K, 101 kPa, x1 = 0.0221	3.21 ± 0.39 mPa·s
293.15 K, 101 kPa, x1 = 0.0339	6.2 ± 0.75 mPa·s
293.15 K, 101 kPa, x1 = 0.05	15.04 ± 1.8 mPa·s and 15.1 ± 1.9 mPa·s
293.15 K, 101 kPa, x1 = 0.0732	56.76 ± 6.8 mPa·s and 76.48 ± 9.2 mPa·s
293.16 K, 101.3 kPa, x1 = 0.013	1.96 ± 0.057 mPa·s
293.16 K, 101.3 kPa, x1 = 0.073	56.5 ± 1.6 mPa·s
298.15 K, 100 kPa, x1 = 0.0009	1.035 ± 0.0084 mPa·s
298.15 K, 100 kPa, x1 = 0.001818	0.98 ± 0.02 mPa·s
298.15 K, 100 kPa, x1 = 0.004482	1.104 ± 0.023 mPa·s
298.15 K, 100 kPa, x1 = 0.007149	1.222 ± 0.026 mPa·s
298.15 K, 100 kPa, x1 = 0.008888	1.295 ± 0.027 mPa·s
298.15 K, 101 kPa, x1 = 0.003	1.03 ± 0.011 mPa·s
298.15 K, 101 kPa, x1 = 0.0058	1.194 ± 0.012 mPa·s
298.15 K, 101 kPa, x1 = 0.00581	1.13 ± 0.14 mPa·s
298.15 K, 101 kPa, x1 = 0.013	1.715 ± 0.018 mPa·s and 1.7 ± 0.2 mPa·s
298.15 K, 101 kPa, x1 = 0.017	2.15 ± 0.023 mPa·s
298.15 K, 101 kPa, x1 = 0.0221	2.65 ± 0.32 mPa·s
298.15 K, 101 kPa, x1 = 0.0339	5.17 ± 0.62 mPa·s
298.15 K, 101 kPa, x1 = 0.05	11.49 ± 1.4 mPa·s and 11.8 ± 1.5 mPa·s
298.15 K, 101 kPa, x1 = 0.0732	43.88 ± 5.3 mPa·s and 47.98 ± 5.8 mPa·s
303.15 K, 100 kPa, x1 = 0.0009	0.944 ± 0.0081 mPa·s
303.16 K, 101.3 kPa, x1 = 0.013	1.504 ± 0.042 mPa·s
303.16 K, 101.3 kPa, x1 = 0.073	33.78 ± 0.92 mPa·s
308.15 K, 100 kPa, x1 = 0.0009	0.8578 ± 0.0078 mPa·s
308.15 K, 100 kPa, x1 = 0.001818	0.789 ± 0.017 mPa·s
308.15 K, 100 kPa, x1 = 0.002681	0.822 ± 0.018 mPa·s
308.15 K, 100 kPa, x1 = 0.003594	0.855 ± 0.018 mPa·s
308.15 K, 100 kPa, x1 = 0.004482	0.886 ± 0.019 mPa·s
308.15 K, 100 kPa, x1 = 0.00626	0.949 ± 0.02 mPa·s
308.15 K, 100 kPa, x1 = 0.007149	0.978 ± 0.021 mPa·s
308.15 K, 100 kPa, x1 = 0.008888	1.035 ± 0.022 mPa·s
308.15 K, 101 kPa, x1 = 0.001814	0.712 ± 0.015 mPa·s
308.15 K, 101 kPa, x1 = 0.003	0.822 ± 0.009 mPa·s
308.15 K, 101 kPa, x1 = 0.003622	0.777 ± 0.016 mPa·s
308.15 K, 101 kPa, x1 = 0.0058	0.949 ± 0.01 mPa·s
308.15 K, 101 kPa, x1 = 0.00581	0.89 ± 0.11 mPa·s and 0.92 ± 0.11 mPa·s
308.15 K, 101 kPa, x1 = 0.007213	0.915 ± 0.02 mPa·s
308.15 K, 101 kPa, x1 = 0.0092	1.117 ± 0.012 mPa·s
308.15 K, 101 kPa, x1 = 0.013	1.337 ± 0.014 mPa·s and 1.35 ± 0.16 mPa·s
308.15 K, 101 kPa, x1 = 0.01428	1.291 ± 0.029 mPa·s
308.15 K, 101 kPa, x1 = 0.017	1.654 ± 0.018 mPa·s
308.15 K, 101 kPa, x1 = 0.01781	1.535 ± 0.035 mPa·s
308.15 K, 101 kPa, x1 = 0.0224	2.075 ± 0.017 mPa·s
308.15 K, 101 kPa, x1 = 0.0279	2.588 ± 0.06 mPa·s
308.15 K, 101 kPa, x1 = 0.0339	3.8 ± 0.46 mPa·s
308.15 K, 101 kPa, x1 = 0.0354	3.655 ± 0.089 mPa·s
308.15 K, 101 kPa, x1 = 0.05	8.69 ± 1.1 mPa·s
308.15 K, 101 kPa, x1 = 0.05167	6.396 ± 0.16 mPa·s
308.15 K, 101 kPa, x1 = 0.0732	26.67 ± 3.2 mPa·s and 27.9 ± 3.4 mPa·s
313.15 K, 100 kPa, x1 = 0.0009	0.7866 ± 0.0076 mPa·s
313.15 K, 101 kPa, x1 = 0.00581	0.82 ± 0.1 mPa·s
313.15 K, 101 kPa, x1 = 0.013	1.2 ± 0.14 mPa·s
313.15 K, 101 kPa, x1 = 0.0339	3.25 ± 0.39 mPa·s
313.15 K, 101 kPa, x1 = 0.05	6.35 ± 0.77 mPa·s and 6.35 ± 0.79 mPa·s
313.15 K, 101 kPa, x1 = 0.0732	21.32 ± 2.6 mPa·s and 25.87 ± 3.1 mPa·s
313.16 K, 101.3 kPa, x1 = 0.013	1.193 ± 0.032 mPa·s
313.16 K, 101.3 kPa, x1 = 0.073	21.28 ± 0.57 mPa·s
318.15 K, 100 kPa, x1 = 0.001818	0.657 ± 0.014 mPa·s
318.15 K, 100 kPa, x1 = 0.002681	0.683 ± 0.015 mPa·s
318.15 K, 100 kPa, x1 = 0.003594	0.709 ± 0.015 mPa·s
318.15 K, 100 kPa, x1 = 0.004482	0.733 ± 0.016 mPa·s
318.15 K, 100 kPa, x1 = 0.00626	0.783 ± 0.017 mPa·s
318.15 K, 100 kPa, x1 = 0.007149	0.805 ± 0.017 mPa·s
318.15 K, 100 kPa, x1 = 0.008888	0.86 ± 0.02 mPa·s
318.15 K, 101 kPa, x1 = 0.00581	0.74 ± 0.09 mPa·s
318.15 K, 101 kPa, x1 = 0.00722	0.771 ± 0.016 mPa·s
318.15 K, 101 kPa, x1 = 0.01077	0.9 ± 0.02 mPa·s
318.15 K, 101 kPa, x1 = 0.013	1.06 ± 0.13 mPa·s
318.15 K, 101 kPa, x1 = 0.01432	0.984 ± 0.022 mPa·s
318.15 K, 101 kPa, x1 = 0.01785	1.164 ± 0.026 mPa·s
318.15 K, 101 kPa, x1 = 0.02128	1.431 ± 0.032 mPa·s
318.15 K, 101 kPa, x1 = 0.0221	1.51 ± 0.18 mPa·s
318.15 K, 101 kPa, x1 = 0.0339	2.84 ± 0.34 mPa·s
318.15 K, 101 kPa, x1 = 0.03502	2.618 ± 0.064 mPa·s
318.15 K, 101 kPa, x1 = 0.05	5.04 ± 0.61 mPa·s and 5.1 ± 0.63 mPa·s
318.15 K, 101 kPa, x1 = 0.0732	17.2 ± 2.1 mPa·s and 17.98 ± 2.2 mPa·s
323.15 K, 101 kPa, x1 = 0.00581	0.66 ± 0.08 mPa·s
323.15 K, 101 kPa, x1 = 0.013	0.98 ± 0.12 mPa·s
323.15 K, 101 kPa, x1 = 0.0221	1.36 ± 0.16 mPa·s
323.15 K, 101 kPa, x1 = 0.0339	2.52 ± 0.3 mPa·s
323.15 K, 101 kPa, x1 = 0.05	4.78 ± 0.58 mPa·s and 4.82 ± 0.59 mPa·s
323.15 K, 101 kPa, x1 = 0.0732	14.07 ± 1.7 mPa·s and 16.78 ± 2 mPa·s

NCCNCCN + CCN(CC)CCO
viscosity [mPa·s], 101 kPa
Details	x1 = 0.1	x1 = 0.1999	x1 = 0.2999	x1 = 0.3997	x1 = 0.4997	x1 = 0.5997	x1 = 0.6996	x1 = 0.7992	x1 = 0.8989
293.15 K	6.36 ± 0.39	7.21 ± 0.44	8 ± 0.49	8.32 ± 0.5	8.45 ± 0.51	8.11 ± 0.49	7.8 ± 0.47	7.34 ± 0.45	7.02 ± 0.43
303.15 K	4.38 ± 0.27	4.95 ± 0.3	5.25 ± 0.32	5.5 ± 0.33	5.64 ± 0.34	5.52 ± 0.33	5.31 ± 0.32	5.08 ± 0.31	4.89 ± 0.3
313.15 K	3.14 ± 0.19	3.46 ± 0.21	3.72 ± 0.23	3.92 ± 0.24	4.02 ± 0.24	3.94 ± 0.24	3.8 ± 0.23	3.62 ± 0.22	3.52 ± 0.21
323.15 K	2.28 ± 0.14	2.54 ± 0.15	2.72 ± 0.17	2.9 ± 0.18	3 ± 0.18	2.95 ± 0.18	2.88 ± 0.17	2.77 ± 0.17	2.69 ± 0.16
